# Where a SMILES comes first, the peptide text is derived from it. The star is where a group is joined. Palmitoyl = CCCCCCCCCCCCCCCC(=O)*
# Target: T1, Interleukin-23 receptor (Homo sapiens, UniProt Q5VWK5)
# T1 sequence (Q5VWK5 whole entry): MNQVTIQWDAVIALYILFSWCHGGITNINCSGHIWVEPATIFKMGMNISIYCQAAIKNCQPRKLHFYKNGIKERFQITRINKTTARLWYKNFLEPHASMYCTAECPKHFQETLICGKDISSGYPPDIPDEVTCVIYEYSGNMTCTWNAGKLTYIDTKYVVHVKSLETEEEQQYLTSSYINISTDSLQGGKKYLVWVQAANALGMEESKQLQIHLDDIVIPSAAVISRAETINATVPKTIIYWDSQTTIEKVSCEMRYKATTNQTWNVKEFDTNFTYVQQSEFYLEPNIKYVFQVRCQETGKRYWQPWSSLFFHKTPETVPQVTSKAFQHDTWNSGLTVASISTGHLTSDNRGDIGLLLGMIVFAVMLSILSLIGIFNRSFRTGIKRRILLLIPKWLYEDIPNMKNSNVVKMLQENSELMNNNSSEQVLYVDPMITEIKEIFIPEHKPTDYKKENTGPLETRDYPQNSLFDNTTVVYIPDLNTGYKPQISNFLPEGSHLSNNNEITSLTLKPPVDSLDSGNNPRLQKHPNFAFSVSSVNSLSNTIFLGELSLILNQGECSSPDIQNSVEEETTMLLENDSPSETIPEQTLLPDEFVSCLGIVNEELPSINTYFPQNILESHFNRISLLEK
# Test: Inhibition of interleukin-23 binding to human interleukin-23 receptor incubated for 2 hrs by competitive binding ELISA
row,Compound,IC50 [nM]
1,CCCCCCCCCCCCCCCC(=O)NCCCC[C@H](NC(=O)[C@H](CCC(=O)O)NC(=O)[C@H](CC(C)C)NC(=O)[C@H](Cc1c[nH]c2ccccc12)NC(=O)[C@H](Cc1ccc(O)cc1)NC(=O)[C@H](CS)NC(=O)[C@H](CCC(N)=O)NC(=O)[C@H](Cc1c[nH]c2ccccc12)NC(=O)[C@@H](NC(=O)[C@H](CCC(N)=O)NC(=O)[C@H](CS)NC(C)=O)[C@@H](C)O)C(=O)NCC(N)=O (Ac-CQTWQCYWLEK(Palmitoyl)G-NH2),> 6000
2,CC(C)[C@H](NC(=O)[C@H](Cc1ccc2ccccc2c1)NC(=O)[C@H](CC(=O)O)NC(=O)[C@H](C)NC(=O)[C@@H](N)CS)C(=O)N[C@@H](CS)C(=O)N[C@@H](Cc1ccc(O)cc1)C(=O)N[C@@H](Cc1c[nH]c2ccccc12)C(=O)N[C@@H](Cc1cnc[nH]1)C(=O)N[C@H](C(=O)N[C@@H](Cc1ccccc1)C(=O)NCC(N)=O)[C@@H](C)O,> 1000
3,NC(=O)CNC(=O)[C@H](Cc1ccc(O)cc1)NC(=O)[C@H](Cc1cnc[nH]1)NC(=O)[C@H](Cc1cnc[nH]1)NC(=O)[C@H](Cc1c[nH]c2ccccc12)NC(=O)[C@H](Cc1ccc(O)cc1)NC(=O)[C@H](CS)NC(=O)[C@H](CCC(=O)O)NC(=O)[C@H](Cc1c[nH]c2ccccc12)NC(=O)[C@H](CC(N)=O)NC(=O)[C@H](CO)NC(=O)[C@@H](N)CS (H-CSNWECYWHHYG-NH2),500 to 1000
4,CC(C)[C@H](NC(=O)[C@H](Cc1cccc2ccccc12)NC(=O)[C@H](CC(=O)O)NC(=O)[C@H](C)NC(=O)[C@@H](N)CS)C(=O)N[C@@H](CS)C(=O)N[C@@H](Cc1ccc(O)cc1)C(=O)N[C@@H](Cc1c[nH]c2ccccc12)C(=O)N[C@@H](Cc1cnc[nH]1)C(=O)N[C@H](C(=O)N[C@@H](Cc1ccccc1)C(=O)NCC(N)=O)[C@@H](C)O,> 1000
5,CC(=O)NCCCC[C@H](NC(=O)[C@](C)(CCCCN)NC(=O)NC(=O)[C@H](Cc1ccc(OCCN)cc1)NC(=O)[C@@H]1CSCC[C@H](NC(C)=O)C(=O)N[C@@H](CCC(N)=O)C(=O)N[C@@H]([C@@H](C)O)C(=O)N[C@@H](Cc2c[nH]c3ccccc23)C(=O)N[C@@H](CCC(N)=O)C(=O)N1)C(=O)N[C@@H](CC(N)=O)C(=O)NCC(N)=O,> 3000
6,CC(=O)N[C@H](C(=O)N[C@@H](CCC(N)=O)C(=O)N[C@@H](Cc1ccccc1)C(=O)N[C@@H](CC(=O)O)C(=O)N[C@@H](CS)C(=O)N[C@@H](CCCNC(=N)N)C(=O)N[C@H](C(=O)N[C@@H](Cc1c[nH]c2ccccc12)C(=O)N[C@@H](CCC(=O)O)C(=O)N[C@@H](CS)C(=O)N[C@@H](Cc1ccc(O)cc1)C(=O)N[C@@H](Cc1c[nH]c2ccccc12)C(=O)N[C@@H](Cc1cnc[nH]1)C(=O)N[C@H](C(=O)N[C@@H](Cc1ccccc1)C(=O)NCC(N)=O)[C@@H](C)O)[C@@H](C)O)[C@@H](C)O,500 to 1000
7,CSCC[C@H](NC(=O)[C@@H](N)CS)C(=O)N[C@H](C(=O)N[C@@H](Cc1c[nH]c2ccccc12)C(=O)N[C@@H](CCC(N)=O)C(=O)N[C@@H](CS)C(=O)N[C@@H](Cc1ccc(O)cc1)C(=O)N[C@@H](Cc1c[nH]c2ccccc12)C(=O)N[C@@H](CC(C)C)C(=O)N[C@@H](Cc1ccc(O)cc1)C(=O)NCC(=O)N[C@@H](CCCNC(=N)N)C(=O)NCCOCC(=O)N[C@H](CCCCN)C(N)=O)[C@@H](C)O,> 30000
8,CC(=O)N[C@@H](CS)C(=O)N[C@@H](CCC(N)=O)C(=O)N[C@H](C(=O)N[C@@H](Cc1c[nH]c2ccccc12)C(=O)N[C@@H](CCC(N)=O)C(=O)N[C@@H](CS)C(=O)N[C@@H](Cc1ccc(O)cc1)C(=O)N[C@@](C)(Cc1ccccc1)C(=O)N[C@@H](CCC(C)C)C(=O)N[C@@H](CCC(=O)O)C(=O)N[C@@H](CC(N)=O)C(=O)NCC(N)=O)[C@@H](C)O,30000
9,CC(=O)N[C@@H](CS)C(=O)N[C@@H](C)C(=O)N[C@@H](CC(=O)O)C(=O)N[C@@H](Cc1c[nH]c2ccccc12)C(=O)N[C@H](C(=O)N[C@@H](CS)C(=O)N[C@@H](Cc1ccc(O)cc1)C(=O)N[C@@H](Cc1c[nH]c2ccccc12)C(=O)N[C@@H](Cc1cnc[nH]1)C(=O)N[C@H](C(=O)N[C@@H](Cc1ccccc1)C(=O)NCC(=O)N[C@@H](CC(=O)O)C(=O)N[C@@H](CCCCNC(=O)COCC(=O)NCCCC[C@H](NC(=O)[C@H](CC(=O)O)NC(=O)CNC(=O)[C@H](Cc1ccccc1)NC(=O)[C@@H](NC(=O)[C@H](Cc1cnc[nH]1)NC(=O)[C@H](Cc1c[nH]c2ccccc12)NC(=O)[C@H](Cc1ccc(O)cc1)NC(=O)[C@H](CS)NC(=O)[C@@H](NC(=O)[C@H](Cc1c[nH]c2ccccc12)NC(=O)[C@H](CC(=O)O)NC(=O)[C@H](C)NC(=O)[C@H](CS)NC(C)=O)C(C)C)[C@@H](C)O)C(=O)O)C(=O)O)[C@@H](C)O)C(C)C,1000 to 10000
10,CC(=O)N[C@@H](CS)C(=O)N[C@@H](CCC(N)=O)C(=O)N[C@H](C(=O)N[C@@H](Cc1c[nH]c2ccccc12)C(=O)N[C@@H](CCC(N)=O)C(=O)N[C@@H](CS)C(=O)N[C@@H](Cc1ccc(O)cc1)C(=O)N[C@@H](Cc1c[nH]c2ccccc12)C(=O)N[C@H](CC(C)C)C(=O)N[C@@H](CCC(=O)O)C(=O)N[C@@H](CC(N)=O)C(=O)NCC(N)=O)[C@@H](C)O,319
11,CCCCCCCCCCCCCCCC(=O)NCCCC[C@H](NC(=O)[C@H](Cc1c[nH]c2ccccc12)NC(=O)[C@H](Cc1ccc(O)cc1)NC(=O)[C@H](CS)NC(=O)[C@H](CCC(N)=O)NC(=O)[C@H](Cc1c[nH]c2ccccc12)NC(=O)[C@@H](NC(=O)[C@H](CCC(N)=O)NC(=O)[C@H](CS)NC(C)=O)[C@@H](C)O)C(=O)N[C@@H](CCC(=O)O)C(=O)N[C@@H](CC(N)=O)C(=O)NCC(N)=O,4880
12,CC(=O)NC(=O)[C@@H](CCCCNC(=O)COCC(=O)NCCCC[C@@H](NCCC(=O)N[C@@H](CS)C(=O)N[C@@H](C)C(=O)N[C@@H](CC(=O)O)C(=O)N[C@@H](Cc1c[nH]c2ccccc12)C(=O)N[C@H](C(=O)N[C@@H](CS)C(=O)N[C@@H](Cc1ccc(O)cc1)C(=O)N[C@@H](Cc1c[nH]c2ccccc12)C(=O)N[C@@H](Cc1cnc[nH]1)C(=O)N[C@H](C(=O)N[C@@H](Cc1ccccc1)C(=O)NCC(=O)O)[C@@H](C)O)C(C)C)C(=O)NC(C)=O)NCCC(=O)N[C@@H](CS)C(=O)N[C@@H](C)C(=O)N[C@@H](CC(=O)O)C(=O)N[C@@H](Cc1c[nH]c2ccccc12)C(=O)N[C@H](C(=O)N[C@@H](CS)C(=O)N[C@@H](Cc1ccc(O)cc1)C(=O)N[C@@H](Cc1c[nH]c2ccccc12)C(=O)N[C@@H](Cc1cnc[nH]1)C(=O)N[C@H](C(=O)N[C@@H](Cc1ccccc1)C(=O)NCC(=O)O)[C@@H](C)O)C(C)C,> 10000
13,CC(=O)N[C@H]1CCSC[C@@H](C(=O)N[C@@H](Cc2ccc(OCCN)cc2)C(=O)N[C@@H](Cc2ccc3ccccc3c2)C(=O)N[C@@](C)(CCCCN)C(=O)N[C@@H](CCC(=O)O)C(=O)N[C@@H](CC(N)=O)C(=O)NCC(N)=O)NC(=O)[C@H](CCC(N)=O)NC(=O)[C@H](CCCNCc2ccccc2)NC(=O)[C@H]([C@@H](C)O)NC(=O)[C@H](CCC(N)=O)NC1=O,> 3000
14,CC(C)[C@H](NC(=O)[C@H](Cc1c[nH]c2ccccc12)NC(=O)[C@H](CC(=O)O)NC(=O)[C@@H](NC(=O)[C@@H](N)CS)[C@@H](C)O)C(=O)N[C@@H](CS)C(=O)N[C@@H](Cc1ccc(O)cc1)C(=O)N[C@@H](Cc1c[nH]c2ccccc12)C(=O)N[C@@H](Cc1cnc[nH]1)C(=O)N[C@@H](CCC(=O)O)C(=O)N[C@@H](Cc1ccc(O)cc1)C(=O)N[C@@H](CO)C(N)=O (H-CTDWVCYWHEYS-NH2),> 1000
15,CC(=O)NCCCC[C@H](NC(=O)[C@](C)(CCCCN)NC(=O)[C@H](Cc1ccc2ccccc2c1)NC(=O)[C@H](Cc1ccc(N)cc1)NC(=O)[C@@H](NC(=O)[C@H](CCC(N)=O)NC(=O)[C@H](Cc1c[nH]c2ccccc12)NC(=O)[C@@H](NC(=O)[C@H](CCC(N)=O)NC(=O)[C@@H](NC(C)=O)C(C)(C)S)[C@@H](C)O)C(C)(C)S)C(=O)N[C@@H](CC(N)=O)C(=O)NCC(N)=O,100 to 1000
16,CSCC[C@H](NC(=O)[C@H](CS)NC(=O)[C@H](Cc1cnc[nH]1)NC(=O)[C@@H](NC(=O)[C@H](CO)NC(=O)CNC(C)=O)C(C)C)C(=O)N[C@H](C(=O)N[C@@H](Cc1c[nH]c2ccccc12)C(=O)N[C@@H](CCC(=O)O)C(=O)N[C@@H](CS)C(=O)N[C@@H](Cc1ccc(O)cc1)C(=O)N[C@@H](Cc1c[nH]c2ccccc12)C(=O)N[C@@H](Cc1cnc[nH]1)C(=O)N[C@H](C(=O)N[C@@H](Cc1ccccc1)C(=O)NCC(N)=O)[C@@H](C)O)[C@@H](C)O (Ac-GSVHCMTWECYWHTFG-NH2),500 to 1000
17,CC(=O)N[C@@H](CS)C(=O)N[C@@H](CCCCN)C(=O)N[C@@H](CC(=O)O)C(=O)N[C@@H](Cc1c[nH]c2ccccc12)C(=O)N[C@H](C(=O)N[C@@H](CS)C(=O)N[C@@H](Cc1ccc(O)cc1)C(=O)N[C@@H](Cc1c[nH]c2ccccc12)C(=O)N[C@@H](Cc1cnc[nH]1)C(=O)N[C@H](C(=O)N[C@@H](Cc1ccccc1)C(=O)NCC(=O)O)[C@@H](C)O)C(C)C,> 1000
18,CC(=O)N[C@H]1CCSC[C@@H](C(=O)N[C@@H](Cc2ccc(OCCN)cc2)C(=O)N[C@@H](Cc2ccc3ccccc3c2)C(=O)N[C@@](C)(CCCCN)C(=O)N[C@@H](CCC(=O)O)C(=O)N[C@@H](CC(N)=O)C(=O)NCC(N)=O)NC(=O)[C@H](CCC(N)=O)NC(=O)[C@H](c2ccc(OCCN)cc2)NC(=O)[C@H]([C@@H](C)O)NC(=O)[C@H](CCC(N)=O)NC1=O,> 3000
